Key:
Assay type in all cases: cell-based
Escherichia coli = assay: USP <51> AET in cosmetic cream/composition; conditions: for AET microorganism count: 48 hrs-28 days; for Log Reduction from Initial Microorganism Inoculum: 14, 28 Days
Bacillus coagulans = assay: Colony formation, population weight and percent transmittance with MSM; conditions: 546 nm, 25x25 mm agar section, 1.0, 2.5, 5.0% MSM
Protocol: The microorganisms were grown for 72 hours in 30 milliliters of tryptic soy broth. At the end of the 72 hours, the broth was measured for colony formation, with photographic documentation of colony formation on tryptic soy agar. Percent transmittance was also measured on a 25 mm×25 mm area of the tryptic soy agar placed between two microscope slides in a spectrophotometer.
For the Bacillus coagulans, the organism was isolated and grown for 24 hours before harvesting. The harvested microorganism was placed into a sterile 100 mL bottle called dilution A. Dilution A was further diluted into one working solution, with a count of 210 Bacillus coagulans per 1 mL, called dilution B. One milliliter of Dilution B was used to inoculate the 30 mL of TSB concentrations stated above.
Each dilution for the microorganism was plated in triplicate for each sample. To capture the appropriate colonies per milliliter, the microorganism was plated at six different dilutions.
The population count was based on the dilution of the tryptic soy broth after 72 hours and inoculation on to tryptic soy agar plates. The plates were incubated for 48 hours and enumerated.
The tryptic soy broth after 72 hours was centrifuged down in a conical vial. The supernatant was pulled off and the pellet was washed. The centrifuging and washing was repeated three times. […] Each vial was weighed empty and recorded. […]

Candida albicans = assay: USP <51> AET in cosmetic cream/composition; conditions: for AET microorganism count: 48 hrs-28 days; for Log Reduction from Initial Microorganism Inoculum: 14, 28 Days
[1] = 10% MSM in cosmetic cream without preservative
[2] = 10% MSM in preservative-free jojoba cream

Substance: Methylsulfonylmethane [MSM]
- AET microorganism count (Escherichia coli; 10% MSM in Preservative Free Cosmetic Composition #1, 48 hours after inoculation): 5.4 × 10^4
- AET microorganism count (Escherichia coli; 10% MSM in Preservative Free Cosmetic Composition #1, 7 days after inoculation): <10
- AET microorganism count (Escherichia coli; [1]): <10
- Log Reduction from Initial Microorganism Inoculum (Escherichia coli; [2]): 5.7 log
- Log Reduction from Initial Microorganism Inoculum (Escherichia coli; 10% MSM, Composition #1): 5.8 log
- Log Reduction from Initial Microorganism Inoculum (Escherichia coli; 10% MSM, Composition #2): 5.8 log
- Percent Transmittance (Bacillus coagulans; 1.0% MSM): 51.5%
- Percent Transmittance (Bacillus coagulans; 5.0% MSM): 45.6%
- AET microorganism count (Candida albicans; 10% MSM in Preservative Free Cosmetic Composition #2, 48 hours after inoculation): 9.0 × 10^2
- AET microorganism count (Candida albicans; 10% MSM in Preservative Free Cosmetic Composition #2, 7 days after inoculation): <10
- AET microorganism count (Candida albicans; [1]): <10
- Log Reduction from Initial Microorganism Inoculum (Candida albicans; [2]): 4.3 log
- Log Reduction from Initial Microorganism Inoculum (Candida albicans; 10% MSM, Composition #1): 5.3 log
- Log Reduction from Initial Microorganism Inoculum (Candida albicans; 10% MSM, Composition #2): 5.3 log
